Consider three molecules from patent publication US5712260A, “Estramustine formulations with improved pharmaceutical properties” (Pharmacia AB, priority 1994, dated 1998).

Data set [1] can be described thus: Reprecipitation of EPS by calcium chloride in pH 3.1 buffer, EPS in solution assayed by UV spectroscopy (Example 1). The format is physicochemical. Particulars: 640 mcg/ml EPS, pH 3.1 HCl/KCl buffer (I=0.1). How it is done:
To a solution in a pH 3.1 HCl/KCl buffer (I=0.1), containing 640 mcg/ml of Estramustine-17-phosphate disodium salt (EPS), were added appropriate quantities of calcium chloride in order to have drug:salt molar ratios in the range from 1:0 to 1:1. The samples were filtered and the quantity of Estramustine-17-phosphate sodium salt in solution was assayed by UV spectroscopy.

Data set [2] is described as follows: EPS in solution after addition of calcium chloride to solution of EPS and cyclodextrin, pH 3.1, UV spectroscopy (Examples 2-4). The class given is physicochemical. The following applies: about 1 mg/ml EPS. How it is done: (§1) The samples were filtered and the quantity of Estramustine-17-phosphate disodium salt in solution was assayed by UV spectroscopy.
as §1, §1

Data set [3] can be described thus: Solubilization by cyclodextrins of previously formed precipitate of EPS with calcium, pH 3.1, UV spectroscopy (Examples 5-7). The format is physicochemical. Particulars: about 1 mg/ml EPS, CD added to preformed precipitate. How it is done: The samples were filtered and the quantity of Estramustine disodium salt in solution was assayed by UV spectroscopy.
as §1, §1

Data set [4] can be described thus: Solubility / reprecipitation of estramustine derivative with cyclodextrins (general statements). The class given is physicochemical. Particulars: for effects of reprecipitation induced by cations: calcium or other cations.
The conditions of data set [5]: oral administration; interaction with foods and drinks; cited from earlier work.

Counter-ions that a name gives are not always drawn.

Regarding `C[C@]12CC[C@@H]3c4ccc(OC(=O)N(CCCl)CCCl)cc4CC[C@H]3[C@@H]1CC[C@@H]2OP(=O)(O)O` [EPS, Estramustine-17-phosphate disodium salt], the EPS in solution in data set [1] (EPS:CaCl2 molar ratio 1:0) was determined as 100%; in data set [1] (EPS:CaCl2 molar ratio 1:0.25), 42%; in data set [1] (EPS:CaCl2 molar ratio 1:0.5) it was 21%; in data set [1] (EPS:CaCl2 molar ratio 1:1) it was 14%; in data set [2] (EPS:CD:CaCl2 molar ratio 1:0:1 (no CD)), 16%; in data set [2] (EPS:CD:CaCl2 molar ratio 1:0:2 (no CD)), 4%. Besides, the EPS in solution in data set [2] (EPS:CD:CaCl2 molar ratio 1:0:4 (no CD)) came to 4%; in data set [3] (EPS:CaCl2:CD molar ratio 1:1:0 (no CD)), 16%; in data set [3] (EPS:CaCl2:CD molar ratio 1:2:0 (no CD)), 4%; in data set [3] (EPS:CaCl2:CD molar ratio 1:4:0 (no CD)) it was 4%. In addition, the “solubility of the drug itself” value in data set [4] (when mixed with cyclodextrins) was “does not change in a significant way”. In data set [4] (with cyclodextrins, disodium salt), the “effects of reprecipitation induced by cations” value was “quite negligible”. Besides, the “reprecipitation of the drug” value in data set [5] was “induced by cations and in particular by calcium ions”.

On to `C[C@H](N)C(=O)O[C@H]1CC[C@H]2[C@@H]3CCc4cc(OC(=O)N(CCCl)CCCl)ccc4[C@H]3CC[C@]12C` [Estramustine-17-L-alaninate], for which the “effect of reprecipitation by anionic species” value in data set [4] (with cyclodextrins) is on record as “avoiding any effect of reprecipitation by anionic species”. Besides, the “reprecipitation of the drug” value in data set [5] is “induced by anionic species, such as chlorine ions”.

As to `C[C@]12CC[C@@H]3c4ccc(OC(=O)N(CCCl)CCCl)cc4CC[C@H]3[C@@H]1CC[C@@H]2OP(=O)(O)O` [Estramustine-17-phosphate], in data set [4] (with cyclodextrins), the “redissolution of already formed precipitate with calcium” value is recorded as “redissolve the already formed precipitate” and the “effects of reprecipitation induced by cations” value is given as “avoid the reprecipitation”. Further, the “passage in solution of the drug in the presence of calcium ions” value in data set [4] (with cyclodextrins, calcium ions in dissolution medium) was “permit the passage in solution of the drug”.
